In article PMC7707621, “Oxidized Juncuenin B Analogues with Increased Antiproliferative Activity on Human Adherent Cell Lines: Semisynthesis and Biological Evaluation” (Journal of Natural Products, 2020):
Read-outs that look alike come from different tables or passages of the source.

Key:
HeLa cells [1] = details: cited from earlier work
SiHa cells = experiment: MTT antiproliferative assay on SiHa; assay type: cell-based, human; details: for IC50: MTT, 0.1–30 μM, 72 h, mean ± SEM, read-out: calculated IC50 values, SiHa
Procedure: (§1) The antiproliferative assays of the products were carried out by a standard MTT method on human breast (MCF-7, T47D), cervical (HeLa, SiHa, C33A), and ovarian (A2780) cancer cells, and NIH/3T3 mouse embryonic fibroblast cell lines. In the first step, the diastereomeric and racemic mixtures 1–11 and the starting compound, juncuenin B, were tested to obtain information about their antiproliferative activity.
(§2) The antiproliferative activity and tumor selectivity of the compounds were measured by standard MTT assays. Tumor cell lines MCF-7, T47D, HeLa, A2780, and noncancerous NIH/3T3 were provided by European Collection of Authenticated Cell Cultures (ECACC, Salisbury, UK); cell lines SiHa and C33A by LGC Standards GmbH (Wesel, Germany). All chemicals and materials used for the antiproliferative assays were purchased from Sigma Aldrich Ltd. (Budapest, Hungary).
(§3) Growth-inhibition properties of racemates and pure enantiomer compounds were determined by standard MTT assays on six human malignant gynecological cell lines (MCF-7, T47D, HeLa, SiHa, C33A, A2780). To investigate tumor selectivity, the MTT assay was repeated on mouse embryonic fibroblast cells (NIH/3T3) under the same conditions. All cell lines were maintained in minimal essential medium (MEM) supplemented with 10% fetal bovine serum, 1% nonessential amino acids, and 1% penicillin–streptomycin–amphotericin B mixture, and were stored in humidified air containing 5% CO2 at 37 °C. All cell types were seeded into 96–well plates at a density of 5000 with the exception of C33a, which was seeded at a density of 10 000 and treated by increasing concentrations (0.1–30 μM) of the compounds for 72 h under cell culturing conditions. After the incubation, 5 mg/mL MTT [3-(4,5-dimethylthiazol-2-yl)-2,5-diphenyltetrazolium bromide] solution was added to samples for 4 h and precipitated blue formazan crystals were dissolved in DMSO. Absorbance values of the samples were measured at 545 nm using a microplate reader (Stat Fax-2100, Awareness Technologies Inc., Palm City, FL, USA) and untreated cells were used as control. Normalized sigmoidal dose–response curves were fitted to the determined data and the IC50 values were calculated by GraphPad Prism 5.01 (GraphPad Software, San Diego, CA, USA). Cisplatin (Ebewe Pharma GmbH, Unterach, Austria) was used as a reference agent in the same concentration range.

[2] = test system: NIH/3T3 mouse embryonic fibroblast cells; experiment: MTT assay for tumor selectivity on NIH/3T3; assay type: cell-based; details: MTT, 0.1–30 μM, 72 h, mean ± SEM; read-out: calculated IC50 values, NIH/3T3
Procedure: as §1, §2, §3

A2780 cells [3] = details: read-out: IC50 value from literature, A2780; cited from earlier work
T47D cells [4] = details: read-out: IC50 value from literature, T47D; cited from earlier work
MCF-7 cells = experiment: MTT antiproliferative assay on MCF-7; assay type: cell-based, human
Procedure: as §1, §2, §3

C33A cells = experiment: MTT antiproliferative assay on C33A; assay type: cell-based, human; details: for IC50: MTT, 0.1–30 μM, 72 h, mean ± SEM, read-out: calculated IC50 values, C33A
Procedure: as §1, §2, §3

T47D cells [5] = experiment: MTT antiproliferative assay on T47D; assay type: cell-based, human; details: Homo sapiens, T47D, read-out: Growth inhibition (% ± SEM), T47d
Procedure: as §1, §2, §3

A2780 cells [6] = experiment: MTT antiproliferative assay on A2780; assay type: cell-based, human; details: Homo sapiens, read-out: Growth inhibition (% ± SEM), A2780
Procedure: as §1, §2, §3

HeLa cells [7] = experiment: MTT antiproliferative assay on HeLa; assay type: cell-based, human; details: Homo sapiens, HeLa, read-out: Growth inhibition (% ± SEM), HeLa
Procedure: as §1, §2, §3

## C=Cc1c(C)c(O)cc2c1-c1ccc(O)c(C)c1CC2 [Juncusol]
HeLa cells [1]
  cytotoxicity on HeLa cells (in words): cytotoxic

## N.N.[Cl][Pt][Cl] [cisplatin, reference compound]
SiHa cells
  IC50: 7.8 µM
[2]
  IC50: 2700 nM
A2780 cells [3]
  IC50: 1300 nM
T47D cells [4]
  IC50: 9.8 µM
MCF-7 cells; MTT, 0.1–30 μM, 72 h, mean ± SEM, read-out: calculated IC50 values, MCF-7
  IC50: 5.8 µM
C33A cells
  IC50: 1.8 µM

## C=Cc1c(C)c(O)cc2c1CCc1c-2ccc(O)c1C [juncuenin B, 1,7-dimethyl-8-vinyl-9,10-dihydrophenanthrene-2,6-diol]
SiHa cells; Homo sapiens, SiHa, 10 μM, read-out: Growth inhibition (% ± SEM), SiHa
  inhibition at 10 µM: 22.7 ± 2.89%
SiHa cells; Homo sapiens, SiHa, 30 μM, read-out: Growth inhibition (% ± SEM), SiHa
  inhibition at 30 µM: 33.1 ± 1.76%
SiHa cells; Homo sapiens, SiHa
  IC50: > 30 µM
T47D cells [4]
  IC50: > 30 µM
T47D cells [5]; 10 μM
  inhibition at 10 µM: < 10%
T47D cells [5]; 30 μM
  inhibition at 30 µM: 54.2 ± 2.66%
MCF-7 cells; Homo sapiens, MCF7, 10 μM, read-out: Growth inhibition (% ± SEM), MCF-7
  inhibition at 10 µM: 22.5 ± 2.02%
MCF-7 cells; Homo sapiens, MCF7, 30 μM, read-out: Growth inhibition (% ± SEM), MCF-7
  inhibition at 30 µM: 64.9 ± 2.1%
MCF-7 cells; MCF-7 versus T47D
  fold stronger activity on MCF-7 than on T47D cells: approximately 2.5 fold
A2780 cells [6]; A2780, 10 μM
  inhibition at 10 µM: 61.2 ± 1.46%
A2780 cells [6]; A2780, 30 μM
  inhibition at 30 µM: 85.91 ± 0.62%
C33A cells; Homo sapiens, C-33-A, 10 μM, read-out: Growth inhibition (% ± SEM), C33a
  inhibition at 10 µM: 27.5 ± 2.45%
C33A cells; Homo sapiens, C-33-A, 30 μM, read-out: Growth inhibition (% ± SEM), C33a
  inhibition at 30 µM: 79.33 ± 0.7%
C33A cells; Homo sapiens, C-33-A
  IC50: 12.7 ± 1.7 µM
HeLa cells [7]; 10 μM
  inhibition at 10 µM: 88.8 ± 1.15%
HeLa cells [7]; 30 μM
  inhibition at 30 µM: 93.58 ± 0.41%
